We go through 3 compounds from patent US10087404B2, “Biological corrosion inhibitor for metals” (KURARAY CO., LTD., priority 2014, dated 2018).

Structures are written as SMILES.

In data set [1] the test system is strain Methanococcus maripaludis KA-1. The experiment in a line: Biological corrosion suppression test (eluted iron concentration from iron flake). Format: cell-based. The note with it: 37° C., eluted iron measured at 7, 14, 21 and 28 days. The procedure:
A biological corrosion suppression test of 3-Methylglutaraldehyde was performed as follows.
The liquid A was purged with a N2 gas for approximately 10 minutes and heated in an autoclave at 121° C. for 20 minutes, and then the liquid C, liquid E, liquid S, and liquid V were added thereto. 20 ml of the resulting mixture liquid was introduced into each of vials containing a sterilized iron flake (0.08 g of iron foil (10 mm length×10 mm width×0.1 mm thickness: Sigma-Aldrich 356808-G)). Each vial was purged with a gas (CO2 gas was mixed into N2 gas so as to give final concentration of 20% CO2 gas) for 5 minutes and then quickly closed with a butyl rubber cap, and the cap was fixed securely with an aluminum seal. After that, 0.5 ml (10^6 to 10^9 cells/ml) of the strain Methanococcus maripaludis KA-1 was added with a syringe, and 3-methylglutaraldehyde was further added so as to give the concentration shown in FIG. 1. Each vial was allowed to stand at 37° C., and the concentration of eluted iron was measured at 7 days, 14 days, 21 days, and 28 days for checking the progress of the biological corrosion of the iron flake. […]

Data set [2] in a line: Contact of acetal compound A with hydrochloric acid aqueous solution pH 4.0, analysed by gas chromatography. Format: physicochemical. The conditions noted are these: nitrogen atmosphere. The procedure: Hydrochloric acid was added to distilled water to adjust the pH to 4.0, thereby preparing a hydrochloric acid aqueous solution. To 100 g of the hydrochloric acid solution was added 2.0 g of an acetal compound represented by the following formula:
[drawing 5] (hereinunder, referred to as acetal compound A), and the mixture was stirred at 80° C. under nitrogen atmosphere. After 1 hour, a part was taken and analyzed by a gas chromatography. As a result, it was confirmed that 97.2% of the acetal compound A was consumed and 3-methylglutaraldehyde was produced at 82.6%. [Conditions of Gas Chromatography]
Hydrochloric acid was added to distilled water to adjust the pH to 4.0, thereby preparing a hydrochloric acid aqueous solution. To 100 g of the hydrochloric acid solution was added 2.0 g of the acetal compound A, and the mixture was stirred at 30° C. under nitrogen atmosphere. After 50 hours, a part was taken and analyzed by a gas chromatography in the same manner as in Example 3. As a result, it was confirmed that 52.5% of the acetal compound A was consumed and 3-methylglutaraldehyde was produced at 47.3%.

In the case of `CC(CC=O)CC=O` [3-methylglutaraldehyde], the “addition concentration at which the concentration of eluted iron was suppressed to a sufficiently low level” value in data set [1] was determined as 1 ppm. Take `CC(CC=O)CC1OCCO1` (stereo not shown) [acetal compound A]: the “acetal compound A consumed” value is on record as 52.5% in data set [2] (hydrochloric acid aqueous solution pH 4.0, 30° C., after 50 hours) and 97.2% in data set [2] (hydrochloric acid aqueous solution pH 4.0, 80° C., after 1 hour). Consider `O=CCCCC=O` [glutaraldehyde, reference compound], for which the “addition concentration at which the concentration of eluted iron was suppressed to a sufficiently low level” value in data set [1] was 100 ppm.
